Here are results for twelve compounds from patent US8012961B2, “Tricyclic antibiotics” (Actelion Pharmaceutical Ltd., priority 2008, dated 2011).

Each structure is given as a SMILES string. In brackets after ≈: the same amount, converted by molar mass.

This test has as its system M. catarrhalis A894. The experiment in a line: MIC determination by microdilution in cation-adjusted Mueller-Hinton Broth (NCCLS). The test is classed as cell-based. Conditions: pH of the test medium 7.2-7.3; for MIC M. catarrhalis A894: microdilution method; for MIC: Moraxella catarrhalis, A894, microdilution method. The protocol:
These assays have been performed following the description given in “Methods for dilution Antimicrobial Susceptibility Tests for Bacteria that Grow Aerobically, 4th ed.; Approved standard: NCCLS Document M7-A4; National Committee for Clinical Laboratory Standards: Villanova, Pa., USA, 1997”. Minimal inhibitory concentrations (MICs; mg/l) were determined in cation-adjusted Mueller-Hinton Broth by a microdilution method following NCCLS guidelines (National Committee for Clinical Laboratory Standards. Methods for Dilution Antimicrobial Susceptibility). The pH of the test medium was 7.2-7.3. All Example compounds were tested against several Gram positive and Gram negative bacteria such as S. aureus, E. faecalis, S. pneumoniae, M. catarrhalis or E.coli.
On the technique in general: Dilution methods test growth across graded concentrations, often in twofold steps.

Consider `COc1ccc2ncc3c(c2n1)C(CN1CC2C(C1)C2NCc1cc2c(cn1)OCCO2)CO3` (racemic) [Example 33, (2,3-dihydro-[1,4]dioxino[2,3-c]pyridin-7-ylmethyl)-[(1α,5α,6α)-3-((1RS)-8-methoxy-1,2-dihydro-3-oxa-5,9-diaza-cyclopenta[a]naphthalen-1-ylmethyl)-3-aza-bicyclo[3.1.0]hex-6-yl]amine], for which the “MIC M. catarrhalis A894” value is “≦0.031 mg/l”.

For the compound `COc1ccc2ncc3c(c2n1)C(CN1CC2C(C1)C2NCc1ccc2c(n1)NC(=O)CS2)CO3` (racemic) [Example 34, 6-{[(1α,5α,6α)-3-((1RS)-8-methoxy-1,2-dihydro-3-oxa-5,9-diaza-cyclopenta[a]naphthalen-1-ylmethyl)-3-aza-bicyclo[3.1.0]hex-6-ylamino]-methyl}-4H-pyrido[3,2-b][1,4]thiazin-3-one], the “MIC M. catarrhalis A894” value was “≦0.031 mg/l”.

One may read the MIC as the lowest concentration that inhibits growth of the organism. Lower therefore signals a more susceptible organism. With `O=C1COc2ccc(CNC3CCN(CC4COc5cnc6ccc(F)cc6c54)CC3)nc2N1` (racemic) [Example 35, rac-6-{[1-(8-fluoro-1,2-dihydro-furo[2,3-c]quinolin-1-ylmethyl)-piperidin-4-ylamino]-methyl}-4H-pyrido[3,2-b][1,4]oxazin-3-one], the MIC was at most 0.031 µg/mL.

With `COc1ccc2ncc3c(c2n1)C(CN1CC[C@@H](NCc2ccc4c(n2)NC(=O)CS4)[C@@H](F)C1)CO3` (relative stereo) [Example 17, 6-{[(3S*,4R*)-3-fluoro-1-((1RS)-8-methoxy-1,2-dihydro-3-oxa-5,9-diaza-cyclopenta[a]naphthalen-1-ylmethyl)-piperidin-4-ylamino]-methyl}-4H-pyrido[3,2-b][1,4]thiazin-3-one], the MIC was at most 0.031 µg/mL.

`COc1ccc2ncc3c(c2n1)C(CN1CC[C@@H](NCc2ccc4c(n2)NC(=O)CO4)[C@@H](F)C1)CO3` (relative stereo) [Example 18, 6-{[(3S*,4R*)-3-fluoro-1-((1RS)-8-methoxy-1,2-dihydro-3-oxa-5,9-diaza-cyclopenta[a]naphthalen-1-ylmethyl)-piperidin-4-ylamino]-methyl}-4H-pyrido[3,2-b][1,4]oxazin-3-one] yielded an MIC of at most 0.031 µg/mL.

In the case of `COc1ccc2ncc3c(c2n1)C(CN1CC[C@@H](NCc2cc4c(cn2)OCCO4)[C@@H](F)C1)CO3` (relative stereo) [Example 19, (2,3-dihydro-[1,4]dioxino[2,3-c]pyridin-7-ylmethyl)-[(3S*,4R*)-3-fluoro-1-((1RS)-8-methoxy-1,2-dihydro-3-oxa-5,9-diaza-cyclopenta[a]naphthalen-1-ylmethyl) -piperidin-4-yl]-amine], the MIC was at most 0.031 µg/mL.

In the case of `COc1ccc2ncc3c(c2n1)C(CN1CC[C@H](NCc2ccc4c(n2)NC(=O)CS4)[C@H](CO)C1)CO3` (relative stereo) [Example 36, 6-{(3R*,4S*)-[3-hydroxymethyl-1-((1RS)-8-methoxy-1,2-dihydro-3-oxa-5,9-diaza-cyclopenta[a]naphthalen-1-ylmethyl)-piperidin-4-ylamino]-methyl}-4H-pyrido[3,2-b][1,4]thiazin-3-one], the MIC is at most 0.031 µg/mL.

As to `COc1ccc2ncc3c(c2n1)C(CN1CC[C@H](NCc2ccc4c(n2)NC(=O)CO4)[C@H](CO)C1)CO3` (relative stereo) [Example 37, 6-{(3R*,4S*)-[3-hydroxymethyl-1-((1RS)-8-methoxy-1,2-dihydro-3-oxa-5,9-diaza-cyclopenta[a]naphthalen-1-ylmethyl)-piperidin-4-ylamino]-methyl}-4H-pyrido[3,2-b][1,4]oxazin-3-one], the MIC is at most 0.031 µg/mL.

`COc1ccc2ncc3c(c2n1)C(CN1CC[C@H](NCc2cc4c(nn2)OCCO4)[C@H](CO)C1)CO3` (relative stereo) [Example 38, (3R*,4S*)-[4-[(6,7-dihydro-[1,4]dioxino[2,3-c]pyridazin-3-ylmethyl)-amino]-1-((1RS)-8-methoxy-1,2-dihydro-3-oxa-5,9-diaza-cyclopenta[a]naphthalen-1-ylmethyl)-piperidin-3-yl]-methanol]: the MIC is 0.063 µg/mL (≈ 0.127 µM).

As for `COc1ccc2ncc3c(c2n1)[C@H](CN1CCC(NCc2ccc4c(n2)NC(=O)CS4)CC1)CO3` (single isomer, unassigned) [Example 16A], the MIC is at most 0.031 µg/mL.

`COc1ccc2ncc3c(c2n1)[C@@H](CN1CCC(NCc2ccc4c(n2)NC(=O)CS4)CC1)CO3` (single isomer, unassigned) [Example 16B] came in with an MIC of at most 0.031 µg/mL.

Take `COc1ccc2ncc3c(c2n1)[C@@H](CN1CCC(NCc2cc4c(cn2)OCCO4)C(CO)C1)CO3` (stereo partly drawn) [Example 40, [4-[(2,3-dihydro-[1,4]dioxino[2,3-c]pyridin-7-ylmethyl)-amino]-1-((S)-8-methoxy-1,2-dihydro-3-oxa-5,9-diaza-cyclopenta[a]naphthalen-1-ylmethyl)-piperidin-3-yl]-methanol]: the MIC is at most 0.031 µg/mL.
